What was measured:
[1] = tested on: Leukotriene B4 production in rat blood; assay: Rat ex vivo Leukotriene B4 inhibition; type: in vivo; details: 2 hours post dose, ex vivo A23187 challenge; for inhibition in vivo at 50 mg/kg: 50 mg/Kg oral
Method: RAT EX VIVO LEUKOTRIENE B4 INHIBITION
The test method described below measures the ability of a compound when administrated orally to rats to inhibit the production of Leukotriene B4 in their blood which is drawn and challenged.
Rats (CD, male, non-fasted, 250 g) are lightly anesthetized with carbon dioxide and an approximately 0.75 mL sample of whole blood is obtained via cardiac puncture. The sample is dispensed into 12×75 mm polypropylene tubes containing 8-10 μL of 10,000 units/mL heparin, mixed and then maintained on ice. The rats are allowed to recover approximately one hour then dosed orally with compound dissolved in PEG 400 at a 5 mL/Kg volume. Five (5) rats are utilized per group. Two (2) hours post dose the rats are again anesthetized with carbon dioxide and the blood sampled again via cardiac puncture.
Duplicate 200 μL portions of blood are added to 1.0 mL polypropylene tubes. A 10 μL portion of 1 mM A23 187 Calcium Ionophore in dimethyl sulfoxide/Tris buffer is added to each tube. The tubes are gently vortexed then incubated in a 37° C. water bath for 30 minutes. The tubes are then centrifuged at 4000 rpm for 10 minutes. 50 μL portions of plasma are transferred to 1.0 mL tubes containing 200 μL of methanol. The tubes are vortexed then placed in the freezer overnight.
The tubes are removed from the freezer then centrifuged at 4000 rpm for 10 minutes. 20 μL portions of the methanol/plasma supernatant and 10 μl methanol dilutions of LTB4 standard are transferred to 96 well v-bottom microtiter plates. The plates are vacuum dried at 40° C. A 40 μL portion of LTB4 radioimmunoassay buffer is added to each well. The plate is bath sonicated for 5 minutes then assayed according to the manufacturer's instructions (Advanced Magnetics; Cambridge, Mass.). Percent inhibition values are obtained by comparing the level of LTB4 in the post-dose samples to the level in the pre-dose samples according to the equation below. [formula]

[2] = tested on: Leukotriene C4 production in mouse peritoneal macrophages; assay: In vitro mouse peritoneal macrophage Leukotriene C4 inhibition; type: cell-based; details: zymosan stimulated, read-out: Percent Inhibition
Method: IN VITRO MOUSE PERITONEAL MACROPHAGE LEUKOTRIENE C4 INHIBITION
The test described below measures the ability of compounds to inhibit the production of Leukotriene C4 in mouse peritoneal macrophages.
Mice (female, CD-1, weighing 25 g) are euthanized by exposure to carbon dioxide. The pertoneal cavity is exposed by peeling back the abdominal skin. A 5 mL portion of media (M199 containing 1% fetal bovine serum, 100 units/mL of penicillin, 100 μg/mL streptomycin, 20 units/mL of heparin and no glutamine) is injected into the exposed peritoneal cavity of each mouse. The lavage fluid is removed and pooled to yield proximately 1×10^6 macrophages/mL. A 2 mL portion of lavage fluid is added to each well of a 24 well sterile multidish and the marcophages are allowed to adhere to the plate for 2 hours at 37° C. in a 5% carbon dioxide atmosphere. The media is removed and each well is washed with 2 mL of phosphate buffered saline (PBS). A 1 mL portion of media, without heparin, but containing 5 μCi/mL of 3H-myoinositol is added to each well and the plates are incubated overnight at 37° C. in a 5% carbon dioxide atmosphere. The media is removed and the cells are washed twice with 2 mL portions of PBS. A 1 mL portion of Puck's saline formulation A containing 1 mM calcium chloride, 1 mM magnesium chloride and 10 mM lithium chloride is added to each well. (The Puck's formulation is made first as a 10× solution which contains 4 g of potassium chloride, 80 g of sodium chloride and 10 g of glucose per liter. The Puck's saline formulation A is made using 10 mL of the 10× Puck's formulation, 0.47 mL of 7.5% sodium bicarbonate and 2 mL of 1M N-2-hydroxyethylpiperazine-N'-2-ethanesulfonic acid per 100 mL.)
Compounds are dissolved in dimethyl sulfoxide. Compounds are tested at concentrations of 10, 1 and 0.1 μM. Each concentration is tested in duplicate.
A 1 μL portion of compound solution or vehicle (DMSO) is added to each well and the plates are incubated for 15 minutes at 37° C. in a 5% carbon dioxide atmosphere. Zymosan is then added to provide a final concentration of 50 μg/mL in each well and the plate is incubated for 1 to 2 hours at 37° C. in a 5% carbon dioxide atmosphere.
Following incubation 200 μL portions of media are transferred to 12×75 mm tubes. The tubes are either assayed immediately or stored at -20° C. until they can be assayed.
The media is assayed for the presence of Leukotriene C4 by radioimmunoassay which is performed according to the manufacturer's instructions (Advanced Magnetics; Cambridge, Mass.). Inhibition of LTC4 production is calculated as the ratio of the amount of LTC4 formed in the presence (LTC4 +cpd) and absence (LTC4 no cpd)of compound according to the equation below. [formula] IC50 values (concentration of compound producing a 50% inhibition of LTC4 production) are calculated by linear regression analysis of percentage inhibition versus log compound concentration plots.

[3] = tested on: Leukotriene B4 production in whole human blood; assay: In vitro human whole blood Leukotriene B4 inhibition; type: cell-based; details: A23187 stimulated, read-out: IC50 (concentration producing 50% inhibition of LTB4 production)
Method: IN VITRO HUMAN WHOLE BLOOD LEUKOTRIENE B4 INHIBITION
The test method described below measures the ability of compounds to inhibit the production of Leukotriene B4 in whole human blood.
Whole human blood is collected by venipuncture into a 60 cc syringe containing 100 units of heparin.
compounds are disolved in dimethyl sulfoxide. Compounds are tested at concentrations of 100, 33, 11, 3.7, 1.2 and 0.41 μM. Each concentration is tested in duplicate.
Aliquots (1 μL) of compound solution are added to 1 mL polyethylene tubes followed by the addition of 500 μL portion of heparinized blood. The tubes are mixed thoroughly then allowed to preincubate at ambient temperature for 15 minutes. A 25 μL portion of 1 mM Calcium Ionophore A23187 in dimethyl sulfoxide/Tris buffer is added to the tubes. The tubes are mixed thoroughly then incubated at 37° C. for 30 minutes.
The tubes are centrifuged at 2000 rpm for 10 minutes. 100 μL portions of plasma are transferred to 1 mL polyethylene tubes containing 400 μL portions of methanol. The tubes are vortexed then frozen at -20° C. overnight.
The tubes are centrifuged for 10 minutes then 100 μL portions of methanol supernatant are transferred to a 96 well microtiter plate. 10 μL portions are transferred from this plate to a 96 well assay plate. Methanol dilutions of LTB4 standard curve are added to the assay plate. 10 μL portions of blank methanol/plasma supernatant are added to each standard curve well. The assay plate is vacuum dried at ambient temperature. The radioimmunoassay buffer is added, the plate is bath-sonicated for 5 minutes then assayed according to the manufacturer's instructions (Advanced Magnetics; Cambridge, Mass.). Inhibition of LTB4 production is calculated as the ratio of the amount of LTB4 formed in the presence (LTB4 +cpd) and absence (LTB4 no cpd) of compound according the equation below. [formula] IC50 values (concentration of compound producing a 50% inhibition of LTB4 production) are calculated by linear regression analysis of percentage inhibition versus log compound concentration plots.

Row | SMILES | inhibition in vivo at 10 mg/kg ([1]; 10 mg/Kg oral) [%] | inhibition in vivo at 50 mg/kg [1] [%] | inhibition at 0.1 µM [2] [%] | inhibition at 1 µM [2] [%] | inhibition at 10 µM [2] [%] | IC50 [3] [nM]
1 | CN(O)C(=O)Nc1ccc(Cc2ccc(NC(=O)N(C)O)cc2)cc1 [Example 1, 4,4'-Methylenebis(1-hydroxy-1-methyl-3-phenylurea)] | 16 | 93 | 61 | 95 | 100 | 550
2 | O=C(Nc1ccc(Cc2ccc(NC(=O)N(O)Cc3ccccc3)cc2)cc1)N(O)Cc1ccccc1 [Example 3, 4,4'-Methylenebis(1-hydroxy-1-benzyl-3-phenylurea)] |  | 6 | 25 | 56 | 74 | 320
3 | CC(C)N(O)C(=O)Nc1ccc(Cc2ccc(NC(=O)N(O)C(C)C)cc2)cc1 [Example 2, 4,4'-Methylenebis(1-hydroxy-1-isopropyl-3-phenylurea)] |  | 34 | 32 | 55 | 54 | 1700

From patent US6121323A, “Bishydroxyureas” (3M Innovative Properties Company, priority 1997, dated 2000)
